Laboratory results taken from patent US4034111A, “Compositions of and new uses for N-acylanilinobutyric acids” (Byk Gulden Lomberg Chemische Fabrik GmbH, priority 1974, dated 1977).
Read-outs that look alike come from different tables or passages of the source.

Experiments:
[1] = tested on: serum enzyme increase (GOT/GPT) after galactosamine; assay: Anti-hepatotoxic action: liver damage due to galactosamine, serum enzymes GOT/GPT; type: in vivo, rat (Sprague-Dawley, male); settings: rat, oral, as sodium salt, serum 24 hours after 200 mg/kg d-galactosamine hydrochloride i.p.; read-out: Anti-hepatotoxic action: inhibition of serum enzyme increase by 25 % (GOT/GPT), damage due to galactosamine (dose)
Protocol: (§1) 5. The determination of the anti-hepatotoxic and hepatotropic effect, respectively, was carried out by damaging the liver with allyl alcohol or galactosamine.
(b) Damaging, due to galactosamine (galactosamine hepatitis) was carried out in accordance with the method described in Arzneimittelforschung 23 Nr. 1a, 159 (1973): Male Sprague-Dawley rats (220 to 300 g) received 200 mg/kg d-galactosamine hydrochloride (Merck, Darmstadt, article no. 4085) intraperitoneally (injection volume 2 ml/kg) 1 hour after oral administration of the compounds to be tested. 24 hours after the damage due to galactosamine a blood sample was taken from the vena orbitalis with slight ether narcosis. The serum enzymes were determined as described under a.

[2] = tested on: serum enzyme increase (GOT/GPT) after allyl alcohol; assay: Anti-hepatotoxic action: liver damage due to allyl alcohol, serum enzymes GOT/GPT; type: in vivo, rat (Sprague-Dawley, female); settings: rat, oral, as sodium salt, serum 18 hours after allyl alcohol; read-out: Anti-hepatotoxic action: inhibition of serum enzyme increase by 25 % (GOT/GPT), damage due to allyl alcohol (dose)
Protocol: as §1
(a) Damaging due to allyl alcohol was carried out in accordance with the method of Renker et al. [Arzneimittelforschung, 22, 1009 (1972)] and of H. Rauen and Schriewer [Arzneimittelforschung, 21, 1194 (1971)]: female Sprague-Dawley-rats (250 to 300 g) received 3 ml/kg of 1.25 % allyl alcohol solution orally […] the compounds to be tested and the solvent (control) had also been administered orally. 18 hours after the damage due to allyl alcohol a blood sample was taken from the tail (0.5 to 0.7 ml) with slight ether narcosis. The serum enzymes GOT (glutamate oxalacetate transaminase) and GPT (glutamate pyruvate transminase) were determined with the help of the Boehringer Test Combination (No. 15955/56)-- micromethod.

[3] = tested on: stomach ulcers; assay: Anti-ulcerogenity: suppression of acetylsalicylic acid-induced stomach ulcers in rats; type: in vivo, rat (Sprague-Dawley, female); settings: 24 h, rat, oral, 30 min before 200 mg/kg acetylsalicylic acid, as sodium salt; for ED100: read-out: Suppression of the formation of stomach ulcers by 100 % (dose); for ED50: read-out: Suppression of the formation of stomach ulcers by 50% (dose)
Protocol: 2. Anti-ulcerogenity was determined according to the method described in German Offenlegungsschrift DT-OS 2,118,200. Female Sprague-Dawley rats weighing about 200 g were kept on empty stomach for 24 hours. Then the compounds to be tested were administered orally in the form of their sodium salts in aqueous solution. After 30 minutes 200 mg/kg acetylsalicyclic acid (in 10 ml/kg of an 1% tylose suspension) were administered to cause stomach ulcers. Control groups received the corresponding amount of water instead of the sodium salt solutions. The ulcus rate was determined microscopically 24 hours after the administration of acetylsalicyclic acid.

[4] = tested on: Pancreas secretion; assay: Pancreas secretion (rat), i.d. administration; type: in vivo; settings: intraduodenal, as sodium salt; for ED (50% increase): Rattus norvegicus, read-out: Increase in pancreas secretion by 50 % maximum (dose); for minimal effective dose: read-out: Increase in pancreas secretion: significantly effective of [ ]
Protocol: (§2) 1. Pancreas secretion (rat and cat) was examined along the lines of the method described by C. J. Dockray [J. Physiol., 225, 679, (1972)] for the rat and of that described by R. M. Case et al [J. Physiol., 223, 669, (1972)] for the cat.
(§3) The pancreas secretion and the bile of narcotized rats (female, 250 to 300 g, stomachs not empty; narcosis: 5 ml/kg of a 25 % urethane solution= 1.25 g/kg i.m.) and cats (both sexes, stomachs empty, 3 to 4 kg; narcosis: laughing gas and 60 mg/kg i.p. chloralose and 120 mg/kg i.p. urethane; permanent infusion of 0.4 to 2 E/kg/hour secretine= 1 to 6 ml/animal/hour,pylorus ligature) were separately transferred to the outside. After an initial period of about 2 hours compounds to be examined were administered intravenously to some and intraduodenally to other animals (volume of injection rat/cat 1 ml/kg). The volume and, respectively, the protein content (amylase, lipase, trypsine) of the fraction for 30 minutes and 15 minutes, respectively, were determined by conventional methods (Boehringer Test Combination 15899).

[5] = tested on: circulation of blood in internal organs (liver, pancreas); assay: Blood circulation through internal organs (liver, pancreas); type: in vivo; settings: Felis catus, iv; cat, i.v. administration, as sodium salt; read-out: Increase in circulation of blood in internal organs (liver, pancreas), effective of
Protocol: 4. The blood circulation through the liver was determined by the arterial blood supply (Art. hepatica) along the lines of the method described by Scholtholt (Habilitationsschrift, faculty of medicine, University of Dusseldorf (1969) "Experimental studies with regard to the blood circulation through the liver").

[6] = tested on: Pancreas secretion; assay: Pancreas secretion (cat), pancreas liquid and protein (enzyme); type: in vivo; settings: Felis catus, as sodium salt
Protocol: as §2, §3

[7] = tested on: heart force of the heart; assay: Heart force (left ventricle pressure course) in narcotized cats; type: in vivo; settings: Felis catus, iv; cat, i.v. administration, as sodium salt; read-out: Increase in heart force of the heart, effective of
Protocol: 3. The influence of the acylated anilinocarboxylic acids on heart force was determined along the lines of the method of W. Kroneberg et al. [Arzneimittelforschung, 22, 2 (1972)] by determination of the pressure course (isometrically) and pressure increase in the left heart ventricle upon intraveneous administration of the substance to narcotized cats.

Row | SMILES | ED25 [1] [mg/kg] | ED25 [2] [mg/kg] | ED100 [3] [mg/kg] | ED (50% increase) [4] [mg/kg] | minimal effective dose [4] [mg/kg] | minimal effective dose [5] [mg/kg] | ED (100% increase) ([6]; intraduodenal, i.d. administration, read-out: Increase in pancreas secretion by 100 % maximum: pancreas liquid (dose)) [mg/kg] | ED (100% increase) ([6]; intraduodenal, i.d. administration, read-out: Increase in pancreas secretion by 100 % maximum: protein (enzyme) (dose)) [mg/kg] | ED (100% increase) ([6]; iv, i.v. administration, read-out: Increase in pancreas secretion by 100 % maximum: protein (enzyme) (dose)) [mg/kg] | ED50 [3] [mg/kg] | minimal effective dose [7] [mg/kg]
1 | COc1ccc(N(CCCC(=O)O)C(=O)c2ccccc2)cc1 [(2), N-benzoyl-γ-(p-anisidino)butyric acid] | ~50 | 5 to 10 | 1.5 | ~0.2 | 0.05 |  |  |  |  |  | 
2 | COc1ccc(N(CCCC(=O)O)C(=O)c2ccc(Cl)cc2)cc1 [(3), N-(p-chlorobenzoyl)-γ-(p-anisidino)butyric acid] | ~20 | 5 to 10 | ~10 | 1 to 5 | 0.05 | 1 to 5 | ~10 | ~1 | < 10 | 1 to 5 | 1
3 | CCOc1ccc(N(CCCC(=O)O)C(=O)c2ccc(Cl)cc2)cc1 [(4), N-(p-chlorobenzoyl)-γ-(p-phenetidino)butyric acid] | ~10 | ~10 | ~15 | 0.1 to 0.5 | 0.05 | 1 to 5 |  |  |  |  | 1
4 | COc1ccc(N(CCCC(=O)O)C(=O)c2ccc(Cl)cc2)cc1OC [(7), N-(p-chlorobenzoyl)-γ-(3,4-dimethoxyanilino)butyric acid] | ~20 | 50 | ~5 | ~1 | ~0.1 | 1 |  |  |  |  | 1 to 5
5 | Cc1cccc(C)c1N(CCCC(=O)O)C(=O)c1ccccc1Cl [(8), N-(o-chlorobenzoyl)-γ-(2,6-dimethylanilino)butyric acid] | ~20 |  | ~30 | ~1 | 0.01 | 1 |  |  |  |  | 1
6 | Cc1cccc(C)c1N(CCCC(=O)O)C(=O)c1ccc(Cl)cc1 [(9), N-(p-chlorobenzoyl)-γ-(2,6-dimethylanilino)butyric acid] | 10 to 20 | ~10 | 1 to 5 | 0.2 to 0.5 | 0.01 | 1 |  |  |  | 0.5 to 1 | 1 to 5
7 | O=C(O)CCCN(C(=O)c1ccc(Cl)cc1)c1ccc(O)cc1 [(11), N-(p-chlorobenzoyl)-γ-(p-hydroxyanilino)butyric acid] |  | ~10 |  | ~0.7 | 0.5 | 1 to 5 |  |  |  |  | ~1
8 | CC(=O)N(CCCC(=O)O)c1cccc(Cl)c1 [(12), N-acetyl-γ-(m-chloroanilino)butyric acid] |  |  |  | ~1 | 0.1 |  |  |  |  |  | 2.5
